# From publication PMC5513037, “Examining the influence of specificity ligands and ATP-competitive ligands on the overall effectiveness of bivalent kinase inhibitors” (Proteome Science, 2017)
# What was measured:
# [1] = KAM-matrix competition in K562 lysate; type: binding, human; conditions: read-out: RB50 (the source's name)
# Protocol: (§1) Supplement 12953_2017_125_MOESM1_ESM.zip/MS_Supp Info.xlsx, sheet "KAM" | column: 10 uM KAM; 1 uM KAM; 0.1 uM KAM; 0.01 uM KAM; 0.001 uM KAM; RB50
# [2] = biological target: T1, ARAF (Homo sapiens, UniProt P10398); experiment: KAM-matrix competition in K562 lysate; type: binding;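 for 0.001 uM KAM: median log10 fold change of treatment over DMSO control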;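 for 0.01 uM KAM: median log10 fold change of treatment over DMSO control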;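 for 0.1 uM KAM: median log10 fold change of treatment over DMSO control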;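 for 1 uM KAM: median log10 fold change of treatment over DMSO control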;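 for 10 uM KAM: median log10 fold change of treatment over DMSO control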
# T1 construct: endogenous in cells; host or cells: K562
# T1 sequence (P10398 1-606): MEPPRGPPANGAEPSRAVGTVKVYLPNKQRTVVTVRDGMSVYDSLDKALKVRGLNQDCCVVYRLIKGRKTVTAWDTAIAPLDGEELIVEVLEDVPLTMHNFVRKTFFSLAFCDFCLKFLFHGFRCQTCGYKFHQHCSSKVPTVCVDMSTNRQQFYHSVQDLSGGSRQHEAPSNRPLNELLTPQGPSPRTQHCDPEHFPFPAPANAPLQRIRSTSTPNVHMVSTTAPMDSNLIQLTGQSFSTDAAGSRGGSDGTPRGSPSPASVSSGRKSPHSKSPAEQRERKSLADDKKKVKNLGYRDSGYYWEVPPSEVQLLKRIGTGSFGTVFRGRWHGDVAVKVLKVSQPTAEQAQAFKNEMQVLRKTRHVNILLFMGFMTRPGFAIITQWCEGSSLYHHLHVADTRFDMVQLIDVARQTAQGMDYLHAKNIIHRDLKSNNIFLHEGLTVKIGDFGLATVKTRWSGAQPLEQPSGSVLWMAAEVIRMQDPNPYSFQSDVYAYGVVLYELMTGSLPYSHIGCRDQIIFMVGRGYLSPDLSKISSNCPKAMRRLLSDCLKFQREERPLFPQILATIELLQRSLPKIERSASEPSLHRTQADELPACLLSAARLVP
# Protocol: as §1
# [3] = biological target: T2, CDK13 (Homo sapiens, UniProt Q14004); experiment: KAM-matrix competition in K562 lysate; type: binding
# T2 construct: endogenous in cells; host or cells: K562
# T2 sequence (Q14004 whole entry): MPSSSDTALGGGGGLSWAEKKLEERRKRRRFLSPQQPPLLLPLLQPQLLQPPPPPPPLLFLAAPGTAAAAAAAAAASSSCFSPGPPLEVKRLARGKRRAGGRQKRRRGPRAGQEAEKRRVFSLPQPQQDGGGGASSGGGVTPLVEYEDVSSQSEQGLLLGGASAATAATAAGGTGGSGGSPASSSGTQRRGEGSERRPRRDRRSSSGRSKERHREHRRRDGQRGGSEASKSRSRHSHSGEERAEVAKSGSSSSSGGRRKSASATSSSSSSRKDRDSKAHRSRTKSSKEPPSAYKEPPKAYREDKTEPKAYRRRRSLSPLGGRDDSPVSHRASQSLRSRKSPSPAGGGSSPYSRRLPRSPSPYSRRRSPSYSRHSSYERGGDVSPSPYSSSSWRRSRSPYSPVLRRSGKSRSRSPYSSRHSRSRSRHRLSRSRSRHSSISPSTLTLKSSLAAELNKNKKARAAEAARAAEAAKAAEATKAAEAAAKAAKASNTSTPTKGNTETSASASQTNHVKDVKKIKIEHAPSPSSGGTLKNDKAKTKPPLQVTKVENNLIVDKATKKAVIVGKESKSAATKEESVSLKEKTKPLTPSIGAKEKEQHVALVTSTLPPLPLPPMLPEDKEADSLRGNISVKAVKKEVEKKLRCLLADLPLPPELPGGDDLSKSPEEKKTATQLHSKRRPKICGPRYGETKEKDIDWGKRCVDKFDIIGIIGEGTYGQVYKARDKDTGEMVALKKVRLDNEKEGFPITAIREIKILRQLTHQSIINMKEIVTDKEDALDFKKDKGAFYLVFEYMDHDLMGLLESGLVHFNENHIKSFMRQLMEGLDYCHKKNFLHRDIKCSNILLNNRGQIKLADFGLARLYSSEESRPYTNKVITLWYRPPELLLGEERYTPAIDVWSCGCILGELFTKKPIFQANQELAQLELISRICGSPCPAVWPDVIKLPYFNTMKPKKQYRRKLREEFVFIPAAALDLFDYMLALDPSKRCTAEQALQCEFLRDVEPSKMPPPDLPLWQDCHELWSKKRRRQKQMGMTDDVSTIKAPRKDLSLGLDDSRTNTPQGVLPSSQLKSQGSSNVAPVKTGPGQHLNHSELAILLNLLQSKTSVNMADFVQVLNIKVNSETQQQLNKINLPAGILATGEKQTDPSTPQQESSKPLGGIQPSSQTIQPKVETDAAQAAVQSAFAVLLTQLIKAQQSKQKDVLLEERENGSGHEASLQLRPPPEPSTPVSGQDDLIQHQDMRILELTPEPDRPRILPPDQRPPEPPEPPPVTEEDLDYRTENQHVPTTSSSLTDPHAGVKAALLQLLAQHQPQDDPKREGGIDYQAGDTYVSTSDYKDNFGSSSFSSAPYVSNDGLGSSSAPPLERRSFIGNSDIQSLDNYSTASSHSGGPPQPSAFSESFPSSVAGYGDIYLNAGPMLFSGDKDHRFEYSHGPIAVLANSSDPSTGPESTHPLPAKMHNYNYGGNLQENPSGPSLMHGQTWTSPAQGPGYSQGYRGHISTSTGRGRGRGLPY
# Protocol: as §1
# [4] = biological target: T3, MAP3K2 (Homo sapiens, UniProt Q9Y2U5); experiment: KAM-matrix competition in K562 lysate; type: binding
# T3 construct: endogenous in cells; host or cells: K562
# T3 sequence (Q9Y2U5 1-619): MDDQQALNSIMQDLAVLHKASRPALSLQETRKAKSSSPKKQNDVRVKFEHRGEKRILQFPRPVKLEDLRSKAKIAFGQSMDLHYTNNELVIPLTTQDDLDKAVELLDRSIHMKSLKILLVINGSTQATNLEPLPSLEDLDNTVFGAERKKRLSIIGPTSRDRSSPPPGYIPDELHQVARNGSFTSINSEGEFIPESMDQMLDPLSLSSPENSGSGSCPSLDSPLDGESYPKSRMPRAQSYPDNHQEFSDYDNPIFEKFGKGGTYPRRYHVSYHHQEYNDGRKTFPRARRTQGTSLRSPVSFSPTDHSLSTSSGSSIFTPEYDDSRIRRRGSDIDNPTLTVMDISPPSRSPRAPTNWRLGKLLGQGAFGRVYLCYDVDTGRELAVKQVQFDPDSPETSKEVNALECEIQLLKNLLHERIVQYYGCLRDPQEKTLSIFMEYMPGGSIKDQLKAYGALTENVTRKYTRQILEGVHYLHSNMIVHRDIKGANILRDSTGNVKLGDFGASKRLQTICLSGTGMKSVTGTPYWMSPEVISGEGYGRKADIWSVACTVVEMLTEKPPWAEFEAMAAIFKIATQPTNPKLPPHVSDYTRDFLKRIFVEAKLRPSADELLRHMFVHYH
# Protocol: as §1
# [5] = biological target: T4, MYO3A (Homo sapiens, UniProt Q8NEV4); experiment: KAM-matrix competition in K562 lysate; type: binding;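 for 0.001 uM KAM: median log10 fold change of treatment over DMSO control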;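 for 0.01 uM KAM: median log10 fold change of treatment over DMSO control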;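 for 0.1 uM KAM: median log10 fold change of treatment over DMSO control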;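 for 1 uM KAM: median log10 fold change of treatment over DMSO control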;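 for 10 uM KAM: median log10 fold change of treatment over DMSO control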
# T4 construct: endogenous in cells; host or cells: K562
# T4 sequence (Q8NEV4 whole entry): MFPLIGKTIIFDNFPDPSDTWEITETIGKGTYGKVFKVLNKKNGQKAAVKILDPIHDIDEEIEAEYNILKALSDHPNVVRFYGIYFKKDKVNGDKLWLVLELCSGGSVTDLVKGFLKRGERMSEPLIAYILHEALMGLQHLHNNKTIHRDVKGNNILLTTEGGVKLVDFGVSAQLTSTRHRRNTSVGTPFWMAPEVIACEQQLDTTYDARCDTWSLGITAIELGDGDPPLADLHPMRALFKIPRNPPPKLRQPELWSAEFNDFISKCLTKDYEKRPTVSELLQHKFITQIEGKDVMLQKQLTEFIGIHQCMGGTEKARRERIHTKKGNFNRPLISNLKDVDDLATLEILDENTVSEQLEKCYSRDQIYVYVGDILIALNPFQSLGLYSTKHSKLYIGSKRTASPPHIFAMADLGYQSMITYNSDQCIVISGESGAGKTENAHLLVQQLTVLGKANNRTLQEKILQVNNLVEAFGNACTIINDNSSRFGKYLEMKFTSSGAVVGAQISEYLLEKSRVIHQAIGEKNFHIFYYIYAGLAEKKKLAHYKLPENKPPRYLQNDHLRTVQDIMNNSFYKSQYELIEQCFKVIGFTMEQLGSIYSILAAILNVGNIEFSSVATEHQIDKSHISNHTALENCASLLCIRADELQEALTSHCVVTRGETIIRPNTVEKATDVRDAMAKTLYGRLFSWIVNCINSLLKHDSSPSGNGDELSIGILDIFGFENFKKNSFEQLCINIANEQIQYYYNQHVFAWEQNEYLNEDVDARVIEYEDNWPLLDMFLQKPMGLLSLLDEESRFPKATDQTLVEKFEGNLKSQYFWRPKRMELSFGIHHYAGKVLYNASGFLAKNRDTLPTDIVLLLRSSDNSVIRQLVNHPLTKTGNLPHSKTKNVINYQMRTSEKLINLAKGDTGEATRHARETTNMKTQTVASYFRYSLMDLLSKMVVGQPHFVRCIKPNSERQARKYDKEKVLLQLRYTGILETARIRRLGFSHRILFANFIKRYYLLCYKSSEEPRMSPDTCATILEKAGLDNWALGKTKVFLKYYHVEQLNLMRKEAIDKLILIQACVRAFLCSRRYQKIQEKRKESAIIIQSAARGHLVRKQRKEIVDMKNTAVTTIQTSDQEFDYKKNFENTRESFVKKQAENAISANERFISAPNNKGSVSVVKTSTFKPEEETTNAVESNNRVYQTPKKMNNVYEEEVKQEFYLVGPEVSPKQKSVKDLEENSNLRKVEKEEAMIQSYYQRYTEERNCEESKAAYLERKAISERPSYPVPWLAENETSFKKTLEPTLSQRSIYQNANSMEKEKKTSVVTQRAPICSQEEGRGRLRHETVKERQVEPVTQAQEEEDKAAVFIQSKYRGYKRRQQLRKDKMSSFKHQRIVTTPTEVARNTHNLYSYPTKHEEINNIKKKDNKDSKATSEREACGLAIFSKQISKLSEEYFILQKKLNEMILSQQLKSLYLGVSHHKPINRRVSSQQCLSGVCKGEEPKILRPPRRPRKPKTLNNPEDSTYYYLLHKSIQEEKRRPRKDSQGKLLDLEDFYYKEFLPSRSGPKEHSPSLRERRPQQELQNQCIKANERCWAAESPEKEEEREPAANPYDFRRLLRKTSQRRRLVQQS
# Protocol: as §1
# [6] = biological target: T5, PDIK1L (Homo sapiens, UniProt Q8N165); experiment: KAM-matrix competition in K562 lysate; type: binding
# T5 construct: endogenous in cells; host or cells: K562
# T5 sequence (Q8N165 whole entry): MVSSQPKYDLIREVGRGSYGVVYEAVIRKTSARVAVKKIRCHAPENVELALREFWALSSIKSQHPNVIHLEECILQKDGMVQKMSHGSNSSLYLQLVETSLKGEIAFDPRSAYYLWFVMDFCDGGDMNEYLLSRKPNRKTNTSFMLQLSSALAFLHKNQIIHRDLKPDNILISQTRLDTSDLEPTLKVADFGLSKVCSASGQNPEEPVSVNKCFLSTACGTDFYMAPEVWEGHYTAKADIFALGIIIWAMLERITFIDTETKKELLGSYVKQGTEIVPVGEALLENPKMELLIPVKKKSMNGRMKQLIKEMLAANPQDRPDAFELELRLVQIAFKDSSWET
# Protocol: as §1
# [7] = biological target: T6, PTK2B (Homo sapiens, UniProt Q14289); experiment: KAM-matrix competition in K562 lysate; type: binding
# T6 construct: endogenous in cells; host or cells: K562
# T6 sequence (Q14289 whole entry): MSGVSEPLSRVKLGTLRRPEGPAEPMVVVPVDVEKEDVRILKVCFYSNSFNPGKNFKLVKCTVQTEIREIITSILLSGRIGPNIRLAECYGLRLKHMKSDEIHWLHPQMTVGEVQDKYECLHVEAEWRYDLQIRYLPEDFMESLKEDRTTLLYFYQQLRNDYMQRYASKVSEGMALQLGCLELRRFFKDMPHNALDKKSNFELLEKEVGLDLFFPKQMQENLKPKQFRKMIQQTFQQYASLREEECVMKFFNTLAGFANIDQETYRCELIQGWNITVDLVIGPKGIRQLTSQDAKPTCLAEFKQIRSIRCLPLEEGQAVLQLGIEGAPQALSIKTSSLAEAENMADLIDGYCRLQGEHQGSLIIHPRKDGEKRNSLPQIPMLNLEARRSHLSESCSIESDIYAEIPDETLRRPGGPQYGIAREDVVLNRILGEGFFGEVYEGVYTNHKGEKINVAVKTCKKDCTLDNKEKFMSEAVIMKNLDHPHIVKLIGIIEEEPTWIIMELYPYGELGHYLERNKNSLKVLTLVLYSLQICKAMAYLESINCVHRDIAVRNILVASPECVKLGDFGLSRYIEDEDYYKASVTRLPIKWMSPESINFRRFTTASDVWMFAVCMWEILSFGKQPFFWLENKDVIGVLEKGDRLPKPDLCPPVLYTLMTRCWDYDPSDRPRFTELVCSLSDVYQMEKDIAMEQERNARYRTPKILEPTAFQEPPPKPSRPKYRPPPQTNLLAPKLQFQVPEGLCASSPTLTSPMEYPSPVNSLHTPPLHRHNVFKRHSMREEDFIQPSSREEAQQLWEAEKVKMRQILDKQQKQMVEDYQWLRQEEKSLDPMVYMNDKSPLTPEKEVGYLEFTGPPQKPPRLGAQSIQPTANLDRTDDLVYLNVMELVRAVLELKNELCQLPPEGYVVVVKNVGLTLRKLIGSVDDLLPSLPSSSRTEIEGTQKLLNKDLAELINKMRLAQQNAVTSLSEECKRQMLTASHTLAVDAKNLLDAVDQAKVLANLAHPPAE
# Protocol: as §1
# [8] = biological target: T7, TBK1 (Homo sapiens, UniProt Q9UHD2); experiment: KAM-matrix competition in K562 lysate; type: binding
# T7 construct: endogenous in cells; host or cells: K562
# T7 sequence (Q9UHD2 1-729): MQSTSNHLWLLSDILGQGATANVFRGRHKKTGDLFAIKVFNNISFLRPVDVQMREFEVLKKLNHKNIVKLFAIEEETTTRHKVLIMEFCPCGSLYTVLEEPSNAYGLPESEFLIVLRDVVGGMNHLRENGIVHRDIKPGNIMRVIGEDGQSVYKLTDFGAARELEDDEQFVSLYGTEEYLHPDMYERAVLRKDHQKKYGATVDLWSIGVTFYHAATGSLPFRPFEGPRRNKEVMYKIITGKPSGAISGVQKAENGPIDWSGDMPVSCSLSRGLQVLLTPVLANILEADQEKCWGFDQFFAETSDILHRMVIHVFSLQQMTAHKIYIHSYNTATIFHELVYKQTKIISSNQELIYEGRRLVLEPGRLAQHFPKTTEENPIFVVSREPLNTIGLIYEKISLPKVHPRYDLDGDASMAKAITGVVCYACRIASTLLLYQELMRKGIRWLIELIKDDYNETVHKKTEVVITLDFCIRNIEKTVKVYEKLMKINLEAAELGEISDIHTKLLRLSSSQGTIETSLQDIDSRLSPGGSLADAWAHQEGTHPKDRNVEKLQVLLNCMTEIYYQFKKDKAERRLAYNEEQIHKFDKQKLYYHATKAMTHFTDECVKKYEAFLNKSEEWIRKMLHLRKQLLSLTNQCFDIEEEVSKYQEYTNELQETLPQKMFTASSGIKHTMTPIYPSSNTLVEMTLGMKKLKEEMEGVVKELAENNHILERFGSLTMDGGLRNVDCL
# Protocol: as §1
# [9] = KAM 0.001-10 uM, read-out: RB50 (the source's name)
# [10] = read-out: RB50 (the source's name)
smiles,measurement,setting,value
N#CCc1ccc(Nc2nc(NCCCN)cc(Nc3cc(C4CC4)[nH]n3)n2)cc1 [KAM],IC50,[1],0.435 µM
same,IC50,[2]; [9],> 10 µM
same,0.001 uM KAM,[2]; relative to 0 uM KAM = 0,-0.04442
same,0.01 uM KAM,[2]; relative to 0 uM KAM = 0,-0.008723
same,0.1 uM KAM,[2]; relative to 0 uM KAM = 0,-0.09412
same,1 uM KAM,[2]; relative to 0 uM KAM = 0,-0.1283
same,10 uM KAM,[2]; relative to 0 uM KAM = 0,-0.1374
same,median Log10 fold change,[3]; 0.001 uM KAM,-0.01353
same,median Log10 fold change,[3]; 0.01 uM KAM,-0.006338
same,median Log10 fold change,[3]; 0.1 uM KAM,-0.0866
same,median Log10 fold change,[3]; 1 uM KAM,-0.2891
same,median Log10 fold change,[3]; 10 uM KAM,-0.4319
same,IC50,[3]; [10],1.48 µM
same,median Log10 fold change,[4]; 0.001 uM KAM,-0.0298
same,median Log10 fold change,[4]; 0.01 uM KAM,0.004839
same,median Log10 fold change,[4]; 0.1 uM KAM,-0.103
same,median Log10 fold change,[4]; 1 uM KAM,-0.3096
same,median Log10 fold change,[4]; 10 uM KAM,-0.4027
same,IC50,[4]; [10],1.33 µM
same,IC50,[5]; [9],> 10 µM
same,0.001 uM KAM,[5]; relative to 0 uM KAM = 0,-0.00983
same,0.01 uM KAM,[5]; relative to 0 uM KAM = 0,0.0682
same,0.1 uM KAM,[5]; relative to 0 uM KAM = 0,0.01204
same,1 uM KAM,[5]; relative to 0 uM KAM = 0,0.07454
same,10 uM KAM,[5]; relative to 0 uM KAM = 0,-0.0706
same,median Log10 fold change,[6]; 0.001 uM KAM,-0.01583
same,median Log10 fold change,[6]; 0.01 uM KAM,-0.03169
same,median Log10 fold change,[6]; 0.1 uM KAM,-0.1434
same,median Log10 fold change,[6]; 1 uM KAM,-0.3076
same,median Log10 fold change,[6]; 10 uM KAM,-0.3596
same,IC50,[6]; [10],1.31 µM
same,median Log10 fold change,[7]; 0.001 uM KAM,-0.01732
same,median Log10 fold change,[7]; 0.01 uM KAM,-0.009714
same,median Log10 fold change,[7]; 0.1 uM KAM,-0.1905
same,median Log10 fold change,[7]; 1 uM KAM,-0.4119
same,median Log10 fold change,[7]; 10 uM KAM,-0.5329
same,IC50,[7]; [10],0.46 µM
same,median Log10 fold change,[8]; 0.001 uM KAM,-0.0003533
same,median Log10 fold change,[8]; 0.01 uM KAM,0.01133
same,median Log10 fold change,[8]; 0.1 uM KAM,-0.1059
same,median Log10 fold change,[8]; 1 uM KAM,-0.5242
same,median Log10 fold change,[8]; 10 uM KAM,-0.6823
same,IC50,[8]; [10],0.452 µM
